Values of other authors as cited in paper PMC11188305, “Reproductive and fetal toxicity studies of histamine H3 receptor antagonist DL76 used in mice to prevent maximal electroshock-induced seizure” (Frontiers in Pharmacology, 2024).

Tested on: H3R
Parameters: method as in Lazewska et al. (2006)
Details: after p.o. administration to mice; ref Lazewska et al. (2006); cited from earlier work

## CC(C)(C)c1ccc(OCCCN2CCCCC2)cc1 [DL76, 1-(3-(4-tert-butyl-phenoxy)propyl) piperidine]
  ED50, in vivo H3R antagonist potency: 2.8 ± 0.4 mg/kg
